In US12673975B2, “Cyclic peptide, cell scaffold material, cell separating material, and medium” (FUJIFILM Corporation, priority 2019, dated 2026):
pKd: −log10 of the molar value. Read-outs that look alike come from different tables or passages of the source. Starred links: 1 amine or outer side, 2 acyl side, 3 side chain; linkers in the order of their positions; H or OH if unused. Positions of bridges follow the written chain, without caps; N, C: chain ends. Non-standard residues stand in square brackets, D forms with d. Residues, ends and D or L forms follow the SMILES beside them. hCys = N[C@@H](CCS)C(=O)O; Dab = NCC[C@H](N)C(=O)O; Dap = NC[C@H](N)C(=O)O; X1 = O=C(C[*:2])[*:1]; X2 = O=C(C[*:1])[*:2]

What was measured:
human integrin αvβ5 = human integrin αvβ5 (Homo sapiens, UniProt P06756+P18084); assay: Evaluation of integrin binding property (surface plasmon resonance, Biacore 3000, immobilized cyclic peptide)
human integrin αvβ5, sequence (P06756 31-1048): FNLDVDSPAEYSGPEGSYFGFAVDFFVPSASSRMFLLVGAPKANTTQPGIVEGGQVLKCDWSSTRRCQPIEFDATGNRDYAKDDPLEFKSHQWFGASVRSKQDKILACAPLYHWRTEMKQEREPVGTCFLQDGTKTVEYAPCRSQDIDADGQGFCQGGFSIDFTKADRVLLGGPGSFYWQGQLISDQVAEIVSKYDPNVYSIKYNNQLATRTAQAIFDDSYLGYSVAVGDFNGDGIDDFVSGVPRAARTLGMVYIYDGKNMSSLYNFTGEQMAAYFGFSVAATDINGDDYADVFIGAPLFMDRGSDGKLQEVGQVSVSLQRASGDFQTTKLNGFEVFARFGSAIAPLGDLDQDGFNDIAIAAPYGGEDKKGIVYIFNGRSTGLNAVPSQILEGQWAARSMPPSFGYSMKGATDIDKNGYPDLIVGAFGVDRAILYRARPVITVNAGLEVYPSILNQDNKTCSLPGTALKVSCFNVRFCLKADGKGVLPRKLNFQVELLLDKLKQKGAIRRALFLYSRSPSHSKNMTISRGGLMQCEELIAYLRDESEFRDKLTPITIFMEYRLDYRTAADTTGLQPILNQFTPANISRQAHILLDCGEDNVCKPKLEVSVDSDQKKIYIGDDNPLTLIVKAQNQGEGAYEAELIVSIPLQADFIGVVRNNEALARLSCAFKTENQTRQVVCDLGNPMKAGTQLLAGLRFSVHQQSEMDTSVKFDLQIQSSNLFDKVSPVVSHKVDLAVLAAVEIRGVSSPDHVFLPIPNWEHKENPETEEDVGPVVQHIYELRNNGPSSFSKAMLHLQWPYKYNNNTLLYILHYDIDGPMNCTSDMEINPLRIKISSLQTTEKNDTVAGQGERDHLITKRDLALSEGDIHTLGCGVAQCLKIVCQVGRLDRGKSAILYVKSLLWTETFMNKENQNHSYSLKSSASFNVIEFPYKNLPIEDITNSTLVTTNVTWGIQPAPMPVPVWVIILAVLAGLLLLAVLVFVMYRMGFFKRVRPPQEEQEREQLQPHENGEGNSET
human integrin αvβ5, sequence (P18084 24-799): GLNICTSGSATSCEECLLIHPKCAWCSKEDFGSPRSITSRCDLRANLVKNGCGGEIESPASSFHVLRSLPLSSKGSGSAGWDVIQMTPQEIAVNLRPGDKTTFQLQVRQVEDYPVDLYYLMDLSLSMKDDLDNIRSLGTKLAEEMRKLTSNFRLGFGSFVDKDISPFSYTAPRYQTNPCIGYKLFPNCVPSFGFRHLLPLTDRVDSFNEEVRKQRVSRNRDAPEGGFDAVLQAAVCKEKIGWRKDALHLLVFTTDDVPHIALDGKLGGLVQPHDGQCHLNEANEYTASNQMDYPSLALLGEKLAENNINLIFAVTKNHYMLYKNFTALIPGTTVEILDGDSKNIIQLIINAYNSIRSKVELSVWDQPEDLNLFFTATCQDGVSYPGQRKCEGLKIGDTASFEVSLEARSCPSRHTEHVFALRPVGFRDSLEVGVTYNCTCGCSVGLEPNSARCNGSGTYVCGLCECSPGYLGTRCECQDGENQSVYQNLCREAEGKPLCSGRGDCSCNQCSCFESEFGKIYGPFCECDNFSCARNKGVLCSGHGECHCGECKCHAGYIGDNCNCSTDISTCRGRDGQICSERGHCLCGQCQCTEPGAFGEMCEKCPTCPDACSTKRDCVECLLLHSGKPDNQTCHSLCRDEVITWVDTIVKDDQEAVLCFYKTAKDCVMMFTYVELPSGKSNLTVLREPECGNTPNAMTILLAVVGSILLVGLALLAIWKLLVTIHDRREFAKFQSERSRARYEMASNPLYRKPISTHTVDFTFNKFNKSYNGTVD
Method in brief: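 Human αvβ5 (30-1,000 nM) flowed for 10 min at 25 °C over immobilized cyclic peptide in 20 mM HEPES, 150 mM NaCl, 5 mM MgCl2, pH 7.4, followed by 30 min running buffer and 0.5 M EDTA regeneration. Dissociation constant from peptide minus unimmobilized channel, scored into standard grades.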

[1] = Evaluation of molecule stability (alkali treatment, residual rate by LC/MS); assay type: physicochemical; conditions: for Stability (molecule stability, residual rate of the cyclic peptide rank): alkali treatment, residual rate by LC/MS; for Performance evaluation: Stability (residual rate of cyclic peptide after alkali treatment): 500 μM peptide aqueous solution plus equivalent of 1 M sodium hydroxide, 15° C., 3 hours, LC/MS peak area
Method in brief: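 Stability read as percent of summed LC/MS peak area remaining versus untreated peptide (C18, 45 °C, 10 mM ammonium formate pH 3, ESI positive/negative). Treatment: 500 μM peptide in water plus an equivalent of 1 M NaOH, 15 °C for 3 hours.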

[2] = surface plasmon resonance, immobilized cyclic peptide, human integrin αvβ5, read-out: Binding activity (integrin binding property, dissociation constant rank)
[3] = SPR, 25° C., HEPES buffer with 5 mM magnesium chloride, integrin 30-1,000 nM, read-out: Performance evaluation: Binding activity (dissociation constant between the cyclic peptide and human integrin αvβ5)

SMILES	pKd (human integrin αvβ5; [2])	pKd (human integrin αvβ5; [3])	Stability (molecule stability, residual rate of the cyclic peptide rank) [1]	Performance evaluation: Stability (residual rate of cyclic peptide after alkali treatment) [1]
CC(C)[C@@H]1NC(=O)[C@@H](NC(=O)[C@H](CCCCN)NC(=O)[C@H](CCCCN)NC(=O)[C@@H](N)CCCCN)CCSCC(=O)NCC[C@@H](C(=O)O)NC(=O)[C@H](C)NC(=O)[C@H](Cc2ccccc2)NC(=O)[C@H]([C@@H](C)O)NC(=O)[C@H](CC(=O)O)NC(=O)CNC(=O)[C@H](CCCNC(=N)N)NC(=O)[C@H](CO)NC1=O [Cyclic peptide 149, KKK-(Hcy)-VSRGDTFA(Dab(acetyl))] (H-KKK[hCys]VSRGDTFA[Dab]-OH; linker 4-13 via X2)	> 7.30		A (The residual rate of the cyclic peptide is 70% or more.)	
C[C@H](NC(=O)[C@H](CCCCN)NC(=O)[C@H](CCCCN)NC(=O)[C@@H](N)CCCCN)C(=O)N[C@H]1CCSCC(=O)NCC[C@@H](C(=O)N[C@@H](CC(=O)O)C(=O)O)NC(=O)[C@H](CCC(=O)O)NC(=O)[C@H](Cc2ccc(O)cc2)NC(=O)[C@H](CC(N)=O)NC(=O)[C@H](CC(=O)O)NC(=O)CNC(=O)[C@H](CCCNC(=N)N)NC(=O)[C@@H]2CCCN2C(=O)[C@H](CCC(=O)O)NC1=O [Cyclic peptide 36, KKKA-(Hcy)-EPRGDNYE(Dab(acetyl))D] (H-KKKA[hCys]EPRGDNYE[Dab]D-OH; linker 5-14 via X2)		7.00 to 7.30		A (The residual rate of the cyclic peptide is 70% or more.)
C[C@H](NC(=O)[C@@H]1CCNC(=O)CSCC[C@H](NC(=O)CNC(=O)[C@H](CCCCN)NC(=O)[C@H](CCCCN)NC(=O)[C@@H](N)CCCCN)C(=O)N2CCC[C@H]2C(=O)N[C@@H](CCCNC(=N)N)C(=O)NCC(=O)N[C@@H](CC(=O)O)C(=O)N[C@@H](CC(N)=O)C(=O)N[C@@H](Cc2ccccc2)C(=O)N[C@@H](CCCNC(=N)N)C(=O)N1)C(=O)O [Cyclic peptide 8, KKKG-(Hcy)-PRGDNFR(Dab(acetyl))A] (H-KKKG[hCys]PRGDNFR[Dab]A-OH; linker 5-13 via X2)		7.00 to 7.30		A (The residual rate of the cyclic peptide is 70% or more.)
C[C@H](NC(=O)[C@H](CCCCN)NC(=O)[C@H](CCCCN)NC(=O)[C@@H](N)CCCCN)C(=O)N[C@H]1CCSCC(=O)NCC[C@@H](C(=O)NCC(=O)O)NC(=O)[C@H](CCCNC(=N)N)NC(=O)[C@H](Cc2ccc(O)cc2)NC(=O)[C@H](CC(N)=O)NC(=O)[C@H](CC(=O)O)NC(=O)CNC(=O)[C@H](CCCNC(=N)N)NC(=O)[C@@H]2CCCN2C(=O)[C@H](CCC(=O)O)NC1=O [Cyclic peptide 40, KKKA-(Hcy)-EPRGDNYR(Dab(acetyl))G] (H-KKKA[hCys]EPRGDNYR[Dab]G-OH; linker 5-14 via X2)		7.00 to 7.30		A (The residual rate of the cyclic peptide is 70% or more.)
CC(C)[C@@H]1NC(=O)[C@@H](NC(=O)[C@H](C)N)CCSCC(=O)NCC[C@@H](C(=O)N[C@@H](C)C(=O)N[C@@H](CCCCN)C(=O)N[C@@H](CCCCN)C(=O)N[C@@H](CCCCN)C(=O)O)NC(=O)[C@H](C)NC(=O)[C@H](Cc2ccccc2)NC(=O)[C@H]([C@@H](C)O)NC(=O)[C@H](CC(=O)O)NC(=O)CNC(=O)[C@H](CCCNC(=N)N)NC(=O)[C@@H]2CCCN2C1=O [Cyclic peptide 109, A-(Hcy)-VPRGDTFA(Dab(acetyl))AKKK] (H-A[hCys]VPRGDTFA[Dab]AKKK-OH; linker 2-11 via X2)	> 7.30		A (The residual rate of the cyclic peptide is 70% or more.)	
C[C@@H]1NC(=O)[C@H](Cc2ccccc2)NC(=O)[C@H]([C@@H](C)O)NC(=O)[C@H](CC(=O)O)NC(=O)CNC(=O)[C@H](CCCNC(=N)N)NC(=O)[C@@H]2CCCN2C(=O)[C@H]([C@@H](C)O)NC(=O)[C@@H](NC(=O)[C@H](CCCCN)NC(=O)[C@H](CCCCN)NC(=O)[C@@H](N)CCCCN)CCSCC(=O)NCC[C@@H](C(=O)O)NC1=O [Cyclic peptide 147, KKK-(Hcy)-TPRGDTFA(Dab(acetyl))] (H-KKK[hCys]TPRGDTFA[Dab]-OH; linker 4-13 via X2)	> 7.30		A (The residual rate of the cyclic peptide is 70% or more.)	

The next lines start with results.

pKd (human integrin αvβ5; [2])	pKd (human integrin αvβ5; [3])	SMILES	Stability (molecule stability, residual rate of the cyclic peptide rank) [1]	Performance evaluation: Stability (residual rate of cyclic peptide after alkali treatment) [1]
	> 7.30	CC[C@H](C)[C@@H]1NC(=O)[C@@H](NC(=O)[C@H](C)NC(=O)[C@H](CCCCN)NC(=O)[C@H](CCCCN)NC(=O)[C@@H](N)CCCCN)CCSCC(=O)NCC[C@@H](C(=O)N[C@@H](C)C(=O)O)NC(=O)[C@H](CCCNC(=N)N)NC(=O)[C@H](Cc2ccccc2)NC(=O)[C@H]([C@@H](C)O)NC(=O)[C@H](CC(=O)O)NC(=O)CNC(=O)[C@H](CCCNC(=N)N)NC(=O)[C@H](CO)NC1=O [Cyclic peptide 77, KKKA-(Hcy)-ISRGDTFR(Dab(acetyl))A] (H-KKKA[hCys]ISRGDTFR[Dab]A-OH; linker 5-14 via X2)		A (The residual rate of the cyclic peptide is 70% or more.)
> 7.30		CC[C@H](C)[C@@H]1NC(=O)[C@@H](NC(=O)CNC(=O)[C@H](CCCCN)NC(=O)[C@H](CCCCN)NC(=O)[C@@H](N)CCCCN)CCSCC(=O)NC[C@@H](C(=O)N[C@@H](C)C(=O)O)NC(=O)[C@H](CCCNC(=N)N)NC(=O)[C@H](Cc2ccccc2)NC(=O)[C@H]([C@@H](C)O)NC(=O)[C@H](CC(=O)O)NC(=O)CNC(=O)[C@H](CCCNC(=N)N)NC(=O)[C@@H]2CCCN2C1=O [Cyclic peptide 114, KKKG-(Hcy)-IPRGDTFR(Dap(acetyl))A] (H-KKKG[hCys]IPRGDTFR[Dap]A-OH; linker 5-14 via X2)	B (The residual rate of the cyclic peptide is 50% or more and less than 70%.)	
	7.00 to 7.30	CC[C@H](C)[C@@H]1NC(=O)[C@H](C)NC(=O)[C@@H](NC(=O)[C@H](CCCCN)NC(=O)[C@H](CCCCN)NC(=O)[C@@H](N)CCCCN)CCSCC(=O)NCC[C@@H](C(=O)N[C@@H](C)C(=O)O)NC(=O)[C@H](CCCNC(=N)N)NC(=O)[C@H](Cc2ccccc2)NC(=O)[C@H](CC(N)=O)NC(=O)[C@H](CC(=O)O)NC(=O)CNC(=O)[C@H](CCCNC(=N)N)NC(=O)[C@@H]2CCCN2C1=O [Cyclic peptide 15, KKK-(Hcy)-AIPRGDNFR(Dab(acetyl))A] (H-KKK[hCys]AIPRGDNFR[Dab]A-OH; linker 4-14 via X2)		A (The residual rate of the cyclic peptide is 70% or more.)
	> 7.30	CC[C@H](C)[C@@H]1NC(=O)[C@@H](NC(=O)[C@H](C)NC(=O)[C@H](CCCCN)NC(=O)[C@H](CCCCN)NC(=O)[C@@H](N)CCCCN)CCSCC(=O)NCC[C@@H](C(=O)N[C@@H](C)C(=O)O)NC(=O)[C@H](C)NC(=O)[C@H](Cc2ccccc2)NC(=O)[C@H](CO)NC(=O)[C@H](CC(=O)O)NC(=O)CNC(=O)[C@H](CCCNC(=N)N)NC(=O)[C@@H]2CCCN2C1=O [Cyclic peptide 92, KKKA-(Hcy)-IPRGDSFA(Dab(acetyl))A] (H-KKKA[hCys]IPRGDSFA[Dab]A-OH; linker 5-14 via X2)		A (The residual rate of the cyclic peptide is 70% or more.)
> 7.30		CC[C@H](C)[C@@H]1NC(=O)[C@@H](NC(=O)[C@H](C)NC(=O)[C@H](CCCCN)NC(=O)[C@H](CCCCN)NC(=O)[C@@H](N)CCCCN)CCSCC(=O)NCCCC[C@@H](C(=O)N[C@@H](C)C(=O)O)NC(=O)[C@H](C)NC(=O)[C@H](Cc2ccccc2)NC(=O)[C@H](CO)NC(=O)[C@H](CC(=O)O)NC(=O)CNC(=O)[C@H](CCCNC(=N)N)NC(=O)[C@@H]2CCCN2C1=O [Cyclic peptide 123, KKKA-(Hcy)-IPRGDSFA(Lys(acetyl))A] (H-KKKA[hCys]IPRGDSFAKA-OH; linker 5-14 via X2)	A (The residual rate of the cyclic peptide is 70% or more.)	
7.00 to 7.30		CC[C@H](C)[C@@H]1NC(=O)[C@@H](NC(=O)CNC(=O)[C@H](CCCCN)NC(=O)[C@H](CCCCN)NC(=O)[C@@H](N)CCCCN)CCCCNC(=O)CSCC[C@@H](C(=O)N[C@@H](C)C(=O)O)NC(=O)[C@H](CCCNC(=N)N)NC(=O)[C@H](Cc2ccccc2)NC(=O)[C@H]([C@@H](C)O)NC(=O)[C@H](CC(=O)O)NC(=O)CNC(=O)[C@H](CCCNC(=N)N)NC(=O)[C@@H]2CCCN2C1=O [Cyclic peptide 120, KKKG(Lys(acetyl))IPRGDTFR-(Hcy)-A] (H-KKKGKIPRGDTFR[hCys]A-OH; linker 5-14 via X1)	A (The residual rate of the cyclic peptide is 70% or more.)	
	7.00 to 7.30	CC[C@H](C)[C@@H]1NC(=O)[C@@H](NC(=O)CNC(=O)[C@H](CCCCN)NC(=O)[C@H](CCCCN)NC(=O)[C@@H](N)CCCCN)CCSCC(=O)NCC[C@@H](C(=O)N[C@@H](C)C(=O)O)NC(=O)[C@H](CCCNC(=N)N)NC(=O)[C@H](Cc2ccccc2)NC(=O)[C@H](CO)NC(=O)[C@H](CC(=O)O)NC(=O)CNC(=O)[C@H](CCCNC(=N)N)NC(=O)[C@@H]2CCCN2C1=O [Cyclic peptide 72, KKKG-(Hcy)-IPRGDSFR(Dab(acetyl))A] (H-KKKG[hCys]IPRGDSFR[Dab]A-OH; linker 5-14 via X2)		A (The residual rate of the cyclic peptide is 70% or more.)
